Reference: US8048869B2, “Pharmaceutical composition for use in hormone replacement therapy” (Pantarhei Bioscience B.V., priority 2001, dated 2011)

Assays:
immature rat uterus = conditions: subcutaneously administered; cited from earlier work
[1] = molecular target: T1, rat uterine nuclear estrogen receptor (Rattus norvegicus, UniProt P06211); conditions: cited from earlier work
T1 construct: host or cells: rat uterus (cytosol and nuclear fractions), Martucci et al. 1976
T1 sequence (P06211 1-600): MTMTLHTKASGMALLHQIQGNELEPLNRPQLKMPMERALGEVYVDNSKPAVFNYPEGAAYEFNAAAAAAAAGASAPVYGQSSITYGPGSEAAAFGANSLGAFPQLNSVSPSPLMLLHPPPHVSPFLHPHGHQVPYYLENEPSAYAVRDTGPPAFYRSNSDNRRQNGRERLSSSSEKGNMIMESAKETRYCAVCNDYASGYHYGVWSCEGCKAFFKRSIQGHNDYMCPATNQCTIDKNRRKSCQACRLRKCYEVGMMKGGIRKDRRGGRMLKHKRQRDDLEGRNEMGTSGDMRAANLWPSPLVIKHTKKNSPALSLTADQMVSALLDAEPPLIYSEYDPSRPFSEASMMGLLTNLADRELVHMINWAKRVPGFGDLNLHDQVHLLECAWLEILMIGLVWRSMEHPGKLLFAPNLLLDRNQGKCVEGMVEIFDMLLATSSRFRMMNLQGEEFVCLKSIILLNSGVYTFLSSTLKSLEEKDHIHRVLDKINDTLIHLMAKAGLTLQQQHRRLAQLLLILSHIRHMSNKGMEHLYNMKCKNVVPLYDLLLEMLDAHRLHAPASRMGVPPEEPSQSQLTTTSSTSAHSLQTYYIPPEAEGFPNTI

[2] = test system: human breast cancer cells (MCF-7); conditions: cited from earlier work
[3] = tritium labeled, intravenously, two adult women; cited from earlier work
[4] = molecular target: T2, human sex Hormone Binding Globulin (SHBG) (Homo sapiens, UniProt P04278); assay: Competitive steroid-binding assay, SHBG; conditions: [3H]DHT or [3H]estradiol as labeled ligands (FIG. 6)
T2 construct: Human SHBG was purified from transgenic mouse serum, as described previously; from tissue; host or cells: serum of mice transgenic for human SHBG
T2 sequence (P04278 30-402): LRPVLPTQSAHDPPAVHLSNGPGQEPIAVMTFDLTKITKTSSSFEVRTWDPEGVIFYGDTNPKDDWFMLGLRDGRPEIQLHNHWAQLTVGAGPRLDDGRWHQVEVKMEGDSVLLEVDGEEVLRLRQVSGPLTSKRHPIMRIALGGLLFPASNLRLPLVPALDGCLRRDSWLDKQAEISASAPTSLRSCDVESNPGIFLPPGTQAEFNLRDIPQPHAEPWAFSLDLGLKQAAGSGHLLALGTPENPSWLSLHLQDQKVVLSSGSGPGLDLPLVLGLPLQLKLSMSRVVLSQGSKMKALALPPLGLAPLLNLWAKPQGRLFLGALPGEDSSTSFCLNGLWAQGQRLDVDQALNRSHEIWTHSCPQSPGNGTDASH
Description: Human SHBG was treated for 30 min at room temperature with a dextran-coated charcoal (DCC) suspension in phosphate buffered saline (PBS) to remove any steroid ligand. After centrifugation (2,000×g for 10 min) to sediment the DCC, the supernatant containing the human SHBG was diluted in PBS to a concentration of 1 nM based on its steroid binding capacity.
After incubation for 1 h at room temperature the. reaction mixtures were placed in an ice bath for a further 15 muin. […] The average amounts of [^3H]labeled ligands bound to SHBG at each concentration of competitor (B) were expressed as a percentage of the average amounts of [^3H]labeled ligands bound to SHBG in the absence of competitor (B0), and were plotted against the concentration of competitor in each assay tube.

[5] = molecular target: T3, rat uterine cytosol estrogen receptor (Rattus norvegicus, UniProt P06211); conditions: cited from earlier work
T3 construct: host or cells: rat uterus (cytosol and nuclear fractions), Martucci et al. 1976
T3 sequence (P06211 1-600): T1 sequence (P06211 1-600)

OVX-rats = assay: Indentation test of distal femur (bone biomechanical strength), OVX rat; format: in vivo; conditions: 4 weeks; for Energy / Maximum load / Stiffness / Ultimate strength: po, distal femur
Description: The ovariectomized aged rat was used as a model for the human disease osteoporosis. This is an established animal model, recommended by the United States Food and Drug Administration (FDA), to evaluate and assess potential agents for osteoporosis prevention and therapy. The anti-resorptive efficacy of estetrol (E4) was tested by ex vivo measuring total and trabecular bone mineral density and bone strength after 4 weeks of treatment at necropsy. 17α-ethinyl-estradiol (EE) and vehicle (1% ethanol/arachidis oil) served as controls in this bioassay.
Three months old female Sprague-Dawley rats were either sham-operated (Sham) or ovariectomized (OVX) one day prior to commencement of the dosing study. Animals were anesthetized using a ketamine/xylazine anesthetic mixture and underwent a bilateral ovariectomy or were sham-treated. A section of hair on the dorsal surface was shaved and an incision made overlying the lumbar region of the spine. The skin was separated from the underlying fascia so that a second incision could be made through the abdominal musculature approximately caudal to the kidneys. The ovaries were then exteriorized and removed and the musculature was closed with a single suture. The skin incision was closed using surgical staples.
Ten animals per treatment group were orally dosed once per day for four consecutive weeks. The dosing commenced 1 day after surgical removal of the ovaries and was administered by oral gavage using a syringe and stainless steel gavage needle at doses of 0.1 mg/kg /day EE, or either 2.5, 0.5 or 0.1 mg/kg/day E4. Vehicle control was daily administered to one group of OVX-animals and sham-operated rats. After treatment, anesthetized rats were subjected to cardiac puncture and asphyxiated by CO2 inhalation. Tibiae and femura were removed, cleaned of soft-tissue and fixed and stored in 70% ethanol/saline at 4° C. (tibia) or saline at 4° C. (femura) until fuirther analysis.
Ex vivo evaluation of bone biomechanical strength was performed with an indentation test at the distal femura. Prior to mechanical testing femura were rinsed in cold saline and carefully cleaned of any remaining adherent soft tissue. A 3-mm segment of the distal femoral metaphysis was cut directly proximal to the femoral condyle with a low-speed diamond saw under constant saline irrigation. The load was applied with a cylindrical indenter (with a flat testing face of 1.6 mm diameter) to the center of marrow cavity on the distal face of the segment. The indenter was allowed to penetrate the cavity at a constant displacement of 6 mm/min to a depth of 2 mm before load reversal.
The maximum load, stiffness and energy absorbed were determined from load displacement curves. Ultimate strength was calculated by dividing the maximum load by the indenter area. Furthermore, mean ultimate strength values are depicted in FIG. 2. […] Reductions in maximum load, stiffness, energy and ultimate strength were −68%, −68%, −27% and −68%, respectively, clearly accompanying the bone mineral density loss in estrogen deficient rats.

[6] = test system: estrogen receptors in the human endometrium; conditions: cited from earlier work

- relative binding affinity for human SHBG [4]: does not bind at all
Structure (SMILES): C[C@]12CC[C@@H]3c4ccc(O)cc4CC[C@H]3[C@@H]1[C@@H](O)[C@@H](O)[C@@H]2O [E4, 1,3,5 (10)-estratrien-3,15α,16α,17β-tetrol]
- uterotrophic activity (immature rat uterus): very weak uterotrophic activity
- relative binding affinity, 17β-estradiol = 100% [1]: 0.3%
- agonistic potency in in vitro cell proliferation, relative to 17β-estradiol [2]: 2%
- excretion and metabolism [3]: rapidly and completely excreted in urine as the glucosiduronate
- relative binding affinity, 17β-estradiol = 100% [5]: 0.5%
- effect on declines in maximum load, stiffness, energy and ultimate strength (OVX-rats; oral treatment, dose-dependent): prevented the declines in maximum load, stiffness, energy and ultimate strength
- Energy (OVX-rats; 0.1 mg/kg/day): 0.09 mJ
- Maximum load (OVX-rats; 0.1 mg/kg/day): 1.50 N
- Stiffness (OVX-rats; 0.1 mg/kg/day): 28.00 N/mm
- Ultimate strength (OVX-rats; 0.1 mg/kg/day): 0.80 N/mm2
- Energy (OVX-rats; 0.5 mg/kg/day): 0.31 mJ
- Maximum load (OVX-rats; 0.5 mg/kg/day): 7.25 N
- Stiffness (OVX-rats; 0.5 mg/kg/day): 132.57 N/mm
- Ultimate strength (OVX-rats; 0.5 mg/kg/day): 3.85 N/mm2
- relative binding constant to the estrogen receptor compared to 17β-estradiol (100%) ([6]; Tseng et al. 1976): 6.25%
- Relative binding to estrogen receptors, relative to 17β-estradiol ([6]; Tseng et al. 1978): 1.5%
